Key:
Conditions in all cases: 1 µM; inhibitor
CAMK4 = CAMK4 (Homo sapiens, UniProt Q16566)
CDC42BPB = CDC42BPB (Homo sapiens, UniProt Q9Y5S2)
CDK5 = CDK5 (Homo sapiens, UniProt Q00535)
EIF2AK3 = EIF2AK3 (Homo sapiens, UniProt Q9NZJ5)
EPHA2 = EPHA2 (Homo sapiens, UniProt P29317)
EPHA8 = EPHA8 (Homo sapiens, UniProt P29322)
FGFR1 = FGFR1 (Homo sapiens, UniProt P11362)
GRK7 = GRK7 (Homo sapiens, UniProt Q8WTQ7)
HIPK4 = HIPK4 (Homo sapiens, UniProt Q8NE63)
JNK1 = JNK1 (Homo sapiens, UniProt P45983)
MAP4K2 = MAP4K2 (Homo sapiens, UniProt Q12851)
MAPKAPK2 = MAPKAPK2 (Homo sapiens, UniProt P49137)
MAPKAPK2, sequence (P49137 whole entry): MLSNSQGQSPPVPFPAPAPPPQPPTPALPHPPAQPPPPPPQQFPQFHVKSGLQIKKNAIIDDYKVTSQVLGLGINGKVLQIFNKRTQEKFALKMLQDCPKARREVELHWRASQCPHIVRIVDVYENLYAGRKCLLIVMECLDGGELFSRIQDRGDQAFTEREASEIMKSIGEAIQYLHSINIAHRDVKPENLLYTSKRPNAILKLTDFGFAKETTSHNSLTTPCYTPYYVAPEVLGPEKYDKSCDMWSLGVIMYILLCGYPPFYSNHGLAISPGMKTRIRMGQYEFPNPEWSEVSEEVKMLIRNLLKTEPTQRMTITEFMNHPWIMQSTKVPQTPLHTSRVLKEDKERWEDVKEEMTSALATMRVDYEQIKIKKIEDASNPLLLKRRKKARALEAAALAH

MASTL = MASTL (Homo sapiens, UniProt Q96GX5)
MATK = MATK (Homo sapiens, UniProt P42679)
MATK, sequence (P42679 whole entry): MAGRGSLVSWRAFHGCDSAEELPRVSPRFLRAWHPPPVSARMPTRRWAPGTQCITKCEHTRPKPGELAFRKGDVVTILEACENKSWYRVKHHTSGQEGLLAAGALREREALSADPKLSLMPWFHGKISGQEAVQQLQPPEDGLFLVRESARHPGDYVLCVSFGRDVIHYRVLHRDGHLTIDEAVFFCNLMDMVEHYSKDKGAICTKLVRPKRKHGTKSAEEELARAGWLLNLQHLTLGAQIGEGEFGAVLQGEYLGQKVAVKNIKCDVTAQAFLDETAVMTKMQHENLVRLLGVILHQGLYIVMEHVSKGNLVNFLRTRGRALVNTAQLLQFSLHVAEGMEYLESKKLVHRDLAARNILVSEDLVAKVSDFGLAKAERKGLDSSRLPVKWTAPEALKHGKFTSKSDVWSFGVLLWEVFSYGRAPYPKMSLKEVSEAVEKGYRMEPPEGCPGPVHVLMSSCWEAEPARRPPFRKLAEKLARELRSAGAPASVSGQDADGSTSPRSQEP

MYLK = MYLK (Homo sapiens, UniProt Q15746)
NIK = NIK (Homo sapiens, UniProt Q99558)
NLK = NLK (Homo sapiens, UniProt Q9UBE8)
PDGFRb = PDGFRb (Homo sapiens, UniProt P09619)
PRKD2 = PRKD2 (Homo sapiens, UniProt Q9BZL6)
RET = RET (Homo sapiens, UniProt P07949)
RIPK5 = RIPK5 (Homo sapiens, UniProt Q6XUX3)
RPS6KA1 = RPS6KA1 (Homo sapiens, UniProt Q15418)
RPS6KB2 = RPS6KB2 (Homo sapiens, UniProt Q9UBS0)
SAK = SAK (Homo sapiens, UniProt O00444)
SAK, sequence (O00444 whole entry): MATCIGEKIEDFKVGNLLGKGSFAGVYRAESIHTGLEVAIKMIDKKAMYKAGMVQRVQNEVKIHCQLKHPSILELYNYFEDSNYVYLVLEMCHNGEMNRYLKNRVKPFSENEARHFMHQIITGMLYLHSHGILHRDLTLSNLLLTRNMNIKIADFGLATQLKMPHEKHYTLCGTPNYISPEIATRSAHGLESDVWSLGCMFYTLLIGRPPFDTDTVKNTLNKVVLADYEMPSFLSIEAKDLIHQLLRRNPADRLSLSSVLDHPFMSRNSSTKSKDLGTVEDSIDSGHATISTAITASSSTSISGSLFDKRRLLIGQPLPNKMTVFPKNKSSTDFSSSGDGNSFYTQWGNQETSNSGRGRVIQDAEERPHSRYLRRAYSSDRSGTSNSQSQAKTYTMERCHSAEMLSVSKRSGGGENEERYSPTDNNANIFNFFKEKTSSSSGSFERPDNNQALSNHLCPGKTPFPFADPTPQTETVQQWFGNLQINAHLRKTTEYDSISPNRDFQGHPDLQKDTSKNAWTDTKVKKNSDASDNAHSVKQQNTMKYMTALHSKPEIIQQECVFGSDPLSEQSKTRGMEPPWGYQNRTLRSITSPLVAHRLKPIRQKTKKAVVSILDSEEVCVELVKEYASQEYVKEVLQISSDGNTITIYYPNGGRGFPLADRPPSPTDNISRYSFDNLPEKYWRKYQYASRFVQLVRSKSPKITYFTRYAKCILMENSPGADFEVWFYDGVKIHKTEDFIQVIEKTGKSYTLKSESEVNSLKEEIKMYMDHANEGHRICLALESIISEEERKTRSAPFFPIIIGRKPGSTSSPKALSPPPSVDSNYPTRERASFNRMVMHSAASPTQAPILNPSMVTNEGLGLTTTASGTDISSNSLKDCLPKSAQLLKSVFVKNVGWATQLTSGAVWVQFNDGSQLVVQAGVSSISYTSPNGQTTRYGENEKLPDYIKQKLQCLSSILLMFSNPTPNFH

SGK1 = SGK1 (Homo sapiens, UniProt O00141)
SGK1, sequence (O00141 whole entry): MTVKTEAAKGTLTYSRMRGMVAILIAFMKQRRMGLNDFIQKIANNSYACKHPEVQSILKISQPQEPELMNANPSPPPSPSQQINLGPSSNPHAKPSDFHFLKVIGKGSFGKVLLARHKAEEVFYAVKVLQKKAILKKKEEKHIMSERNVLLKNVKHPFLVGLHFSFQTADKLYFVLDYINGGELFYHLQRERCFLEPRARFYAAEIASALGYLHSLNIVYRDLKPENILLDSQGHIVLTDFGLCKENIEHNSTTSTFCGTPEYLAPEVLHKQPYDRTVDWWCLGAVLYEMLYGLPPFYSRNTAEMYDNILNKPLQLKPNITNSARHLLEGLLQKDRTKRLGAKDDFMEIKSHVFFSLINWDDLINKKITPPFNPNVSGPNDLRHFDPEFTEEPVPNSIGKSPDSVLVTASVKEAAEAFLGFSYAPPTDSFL

SLK = SLK (Homo sapiens, UniProt Q9H2G2)
SRC = SRC (Homo sapiens, UniProt P12931)
SRC, sequence (P12931 whole entry): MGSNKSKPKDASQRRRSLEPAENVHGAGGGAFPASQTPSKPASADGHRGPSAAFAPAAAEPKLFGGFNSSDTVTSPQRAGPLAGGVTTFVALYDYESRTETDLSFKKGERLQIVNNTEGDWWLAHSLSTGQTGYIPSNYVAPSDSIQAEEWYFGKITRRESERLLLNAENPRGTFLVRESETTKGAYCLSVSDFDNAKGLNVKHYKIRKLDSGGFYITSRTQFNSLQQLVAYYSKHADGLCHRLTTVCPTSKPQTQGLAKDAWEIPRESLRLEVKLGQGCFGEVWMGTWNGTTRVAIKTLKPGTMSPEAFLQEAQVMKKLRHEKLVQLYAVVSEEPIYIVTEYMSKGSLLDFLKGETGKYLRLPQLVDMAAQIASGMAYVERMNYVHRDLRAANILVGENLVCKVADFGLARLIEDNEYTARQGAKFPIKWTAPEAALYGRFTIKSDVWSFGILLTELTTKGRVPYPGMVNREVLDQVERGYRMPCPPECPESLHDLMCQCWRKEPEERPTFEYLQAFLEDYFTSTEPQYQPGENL

TRKA = TRKA (Homo sapiens, UniProt P04629)
VRK2 = VRK2 (Homo sapiens, UniProt Q86Y07)
WEE1 = WEE1 (Homo sapiens, UniProt P30291)
p38b = p38b (Homo sapiens, UniProt Q15759)

JNK1, sequence (P45983 whole entry): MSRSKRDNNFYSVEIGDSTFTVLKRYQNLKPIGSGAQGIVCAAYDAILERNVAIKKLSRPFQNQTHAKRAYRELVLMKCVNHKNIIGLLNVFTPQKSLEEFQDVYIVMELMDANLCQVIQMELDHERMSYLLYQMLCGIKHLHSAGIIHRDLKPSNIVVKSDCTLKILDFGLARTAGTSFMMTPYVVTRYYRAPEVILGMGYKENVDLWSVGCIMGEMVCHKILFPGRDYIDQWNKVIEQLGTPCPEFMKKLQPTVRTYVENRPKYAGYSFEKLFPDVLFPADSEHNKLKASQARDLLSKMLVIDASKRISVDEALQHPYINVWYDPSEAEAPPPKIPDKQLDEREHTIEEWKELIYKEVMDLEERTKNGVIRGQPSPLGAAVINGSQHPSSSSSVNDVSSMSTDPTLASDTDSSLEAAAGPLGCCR
CDK5, sequence (Q00535 whole entry): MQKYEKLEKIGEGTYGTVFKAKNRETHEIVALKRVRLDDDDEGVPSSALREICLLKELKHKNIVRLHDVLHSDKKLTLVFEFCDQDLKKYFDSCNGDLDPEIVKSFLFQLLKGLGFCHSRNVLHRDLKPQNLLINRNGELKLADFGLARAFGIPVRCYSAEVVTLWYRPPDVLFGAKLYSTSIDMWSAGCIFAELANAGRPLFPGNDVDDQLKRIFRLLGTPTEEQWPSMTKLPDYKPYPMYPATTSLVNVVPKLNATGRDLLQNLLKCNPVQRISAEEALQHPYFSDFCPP
HIPK4, sequence (Q8NE63 whole entry): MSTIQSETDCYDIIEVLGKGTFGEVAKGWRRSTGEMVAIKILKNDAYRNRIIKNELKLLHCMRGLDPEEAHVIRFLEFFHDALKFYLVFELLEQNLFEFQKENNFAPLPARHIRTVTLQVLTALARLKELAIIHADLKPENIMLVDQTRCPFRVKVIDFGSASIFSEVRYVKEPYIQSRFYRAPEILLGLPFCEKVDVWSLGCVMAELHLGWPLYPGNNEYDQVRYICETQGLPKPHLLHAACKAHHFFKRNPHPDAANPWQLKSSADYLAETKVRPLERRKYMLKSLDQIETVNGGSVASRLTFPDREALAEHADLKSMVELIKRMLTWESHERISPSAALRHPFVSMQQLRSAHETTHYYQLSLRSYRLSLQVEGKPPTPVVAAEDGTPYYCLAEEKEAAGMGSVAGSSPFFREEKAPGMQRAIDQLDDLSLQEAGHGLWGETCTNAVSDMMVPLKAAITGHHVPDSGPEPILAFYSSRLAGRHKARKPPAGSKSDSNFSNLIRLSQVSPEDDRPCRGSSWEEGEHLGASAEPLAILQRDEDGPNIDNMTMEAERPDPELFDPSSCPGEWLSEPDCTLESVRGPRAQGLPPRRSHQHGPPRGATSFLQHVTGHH
FGFR1, sequence (P11362 whole entry): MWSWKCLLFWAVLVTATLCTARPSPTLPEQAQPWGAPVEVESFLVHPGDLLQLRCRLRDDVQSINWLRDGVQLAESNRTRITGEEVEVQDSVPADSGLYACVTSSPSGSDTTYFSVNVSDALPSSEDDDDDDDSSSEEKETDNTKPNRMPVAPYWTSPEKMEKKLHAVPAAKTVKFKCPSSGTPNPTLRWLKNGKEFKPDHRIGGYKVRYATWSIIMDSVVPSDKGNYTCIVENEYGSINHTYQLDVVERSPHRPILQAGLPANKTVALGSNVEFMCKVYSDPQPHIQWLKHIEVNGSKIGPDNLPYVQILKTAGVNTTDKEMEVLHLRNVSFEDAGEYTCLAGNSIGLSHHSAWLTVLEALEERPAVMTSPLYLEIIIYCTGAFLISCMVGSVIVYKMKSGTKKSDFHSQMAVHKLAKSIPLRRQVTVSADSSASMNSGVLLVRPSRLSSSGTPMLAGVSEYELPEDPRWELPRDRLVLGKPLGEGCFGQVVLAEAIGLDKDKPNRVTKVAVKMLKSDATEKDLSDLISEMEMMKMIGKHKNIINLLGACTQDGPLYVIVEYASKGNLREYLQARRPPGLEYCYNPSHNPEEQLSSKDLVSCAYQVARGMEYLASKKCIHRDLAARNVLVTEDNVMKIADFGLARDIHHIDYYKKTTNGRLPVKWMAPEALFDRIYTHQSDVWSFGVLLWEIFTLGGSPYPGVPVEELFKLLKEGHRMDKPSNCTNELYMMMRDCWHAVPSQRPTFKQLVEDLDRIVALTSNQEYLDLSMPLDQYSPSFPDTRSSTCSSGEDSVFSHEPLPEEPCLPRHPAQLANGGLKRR

Compound: O=C1NCCCCCNc2nc(c3ccccc3n2)Nc2cc1[nH]n2 [21c, (Z)-3^1H-2,5,11-triaza-1(4,2)-quinazolina-3(3,5)-pyrazolacycloundecaphan-4-one]
- 21c Remaining activity, percent of control [%] (CAMK4): 98.0%
- 21c Remaining activity, percent of control [%] (CDC42BPB): 106.6%
- 21c Remaining activity, percent of control [%] (CDK5): 101.3%
- 21c Remaining activity, percent of control [%] (EIF2AK3): 87.8%
- 21c Remaining activity, percent of control [%] (EPHA2): 82.5%
- 21c Remaining activity, percent of control [%] (EPHA8): 112.4%
- 21c Remaining activity, percent of control [%] (FGFR1): 80.9%
- 21c Remaining activity, percent of control [%] (GRK7): 89.2%
- 21c Remaining activity, percent of control [%] (HIPK4): 115.2%
- 21c Remaining activity, percent of control [%] (JNK1): 95.6%
- 21c Remaining activity, percent of control [%] (MAP4K2): 112.8%
- 21c Remaining activity, percent of control [%] (MAPKAPK2): 106.1%
- 21c Remaining activity, percent of control [%] (MASTL): 118.0%
- 21c Remaining activity, percent of control [%] (MATK): 78.6%
- 21c Remaining activity, percent of control [%] (MYLK): 68.9%
- 21c Remaining activity, percent of control [%] (NIK): 68.5%
- 21c Remaining activity, percent of control [%] (NLK): 111.9%
- 21c Remaining activity, percent of control [%] (PDGFRb): 71.2%
- 21c Remaining activity, percent of control [%] (PRKD2): 82.0%
- 21c Remaining activity, percent of control [%] (RET): 122.5%
- 21c Remaining activity, percent of control [%] (RIPK5): 122.0%
- 21c Remaining activity, percent of control [%] (RPS6KA1): 90.5%
- 21c Remaining activity, percent of control [%] (RPS6KB2): 99.0%
- 21c Remaining activity, percent of control [%] (SAK): 86.5%
- 21c Remaining activity, percent of control [%] (SGK1): 90.0%
- 21c Remaining activity, percent of control [%] (SLK): 61.9%
- 21c Remaining activity, percent of control [%] (SRC): 94.8%
- 21c Remaining activity, percent of control [%] (TRKA): 90.8%
- 21c Remaining activity, percent of control [%] (VRK2): 96.9%
- 21c Remaining activity, percent of control [%] (WEE1): 88.0%
- 21c Remaining activity, percent of control [%] (p38b): 92.9%

— doi:10.1101/2023.10.20.563248v1 (biorxiv, 2023)
